In paper PMC6540285, “Evaluation of Protein Kinase Inhibitors with PLK4 Cross-Over Potential in a Pre-Clinical Model of Cancer” (International Journal of Molecular Sciences, 2019):

What was measured:
SNF1LK2 = SNF1LK2 (Homo sapiens, UniProt Q9H0K1); test: SelectScreen kinase profiling, ZLYTE; type: biochemical; details: SNF1LK2, 10 µM
CDK5/p25 = CDK5/p25 (Homo sapiens, UniProt Q00535); test: SelectScreen kinase profiling, ZLYTE; type: biochemical; details: CDK5/p25, 10 µM
NEK9 = NEK9 (Homo sapiens, UniProt Q8TD19); test: SelectScreen kinase profiling, ZLYTE; type: biochemical; details: NEK9, 10 µM
MASTL = MASTL (Homo sapiens, UniProt Q96GX5); test: SelectScreen kinase profiling, LanthaScreen binding
GRK7 = GRK7 (Homo sapiens, UniProt Q8WTQ7); test: SelectScreen kinase profiling, ZLYTE; type: biochemical; details: GRK7, 10 µM
Sequence of GRK7 (Q8WTQ7 whole entry): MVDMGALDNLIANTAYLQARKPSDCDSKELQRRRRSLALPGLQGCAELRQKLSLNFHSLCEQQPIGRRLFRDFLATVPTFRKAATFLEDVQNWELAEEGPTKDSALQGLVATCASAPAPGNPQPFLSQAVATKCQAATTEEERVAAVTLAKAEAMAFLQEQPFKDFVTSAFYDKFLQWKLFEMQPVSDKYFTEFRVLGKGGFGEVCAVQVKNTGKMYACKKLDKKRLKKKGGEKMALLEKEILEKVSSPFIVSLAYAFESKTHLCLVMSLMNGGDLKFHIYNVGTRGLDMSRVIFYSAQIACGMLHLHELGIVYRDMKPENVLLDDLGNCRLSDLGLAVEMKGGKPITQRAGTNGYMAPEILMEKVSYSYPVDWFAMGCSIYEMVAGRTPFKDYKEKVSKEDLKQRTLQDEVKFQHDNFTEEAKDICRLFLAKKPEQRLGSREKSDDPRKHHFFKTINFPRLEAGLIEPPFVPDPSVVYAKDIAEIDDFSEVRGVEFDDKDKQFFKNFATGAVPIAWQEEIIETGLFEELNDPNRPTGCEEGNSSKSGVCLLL

P450 2C19 = P450 2C19 (Homo sapiens, UniProt P33261); test: SelectScreen P450 Vivid biochemical assay; details: 10000nM; substrate EOMCC
CAMK2D (CaMKII delta) = CAMK2D (CaMKII delta) (Homo sapiens, UniProt Q13557); test: SelectScreen kinase profiling, ZLYTE; type: biochemical
AMPK (A1/B2/G1) = AMPK (A1/B2/G1) (Homo sapiens, UniProt Q13131); test: SelectScreen kinase profiling, LanthaScreen binding
PRKACG (PRKAC gamma) = PRKACG (PRKAC gamma) (Homo sapiens, UniProt P22612); test: as above
Sequence of PRKACG (PRKAC gamma) (P22612 whole entry): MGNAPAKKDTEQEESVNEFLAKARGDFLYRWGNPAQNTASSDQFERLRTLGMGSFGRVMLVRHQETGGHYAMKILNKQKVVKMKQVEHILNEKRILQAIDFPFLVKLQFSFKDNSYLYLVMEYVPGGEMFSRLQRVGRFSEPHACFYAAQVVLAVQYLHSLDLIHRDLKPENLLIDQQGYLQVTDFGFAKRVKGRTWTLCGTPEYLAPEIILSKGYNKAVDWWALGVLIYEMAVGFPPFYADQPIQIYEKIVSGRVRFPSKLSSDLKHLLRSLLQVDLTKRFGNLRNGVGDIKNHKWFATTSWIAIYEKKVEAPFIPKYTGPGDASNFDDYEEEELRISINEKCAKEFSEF

ADRBK2 (GRK3) = ADRBK2 (GRK3) (Homo sapiens, UniProt P35626); test: SelectScreen kinase profiling, ZLYTE; type: biochemical
Sequence of ADRBK2 (GRK3) (P35626 whole entry): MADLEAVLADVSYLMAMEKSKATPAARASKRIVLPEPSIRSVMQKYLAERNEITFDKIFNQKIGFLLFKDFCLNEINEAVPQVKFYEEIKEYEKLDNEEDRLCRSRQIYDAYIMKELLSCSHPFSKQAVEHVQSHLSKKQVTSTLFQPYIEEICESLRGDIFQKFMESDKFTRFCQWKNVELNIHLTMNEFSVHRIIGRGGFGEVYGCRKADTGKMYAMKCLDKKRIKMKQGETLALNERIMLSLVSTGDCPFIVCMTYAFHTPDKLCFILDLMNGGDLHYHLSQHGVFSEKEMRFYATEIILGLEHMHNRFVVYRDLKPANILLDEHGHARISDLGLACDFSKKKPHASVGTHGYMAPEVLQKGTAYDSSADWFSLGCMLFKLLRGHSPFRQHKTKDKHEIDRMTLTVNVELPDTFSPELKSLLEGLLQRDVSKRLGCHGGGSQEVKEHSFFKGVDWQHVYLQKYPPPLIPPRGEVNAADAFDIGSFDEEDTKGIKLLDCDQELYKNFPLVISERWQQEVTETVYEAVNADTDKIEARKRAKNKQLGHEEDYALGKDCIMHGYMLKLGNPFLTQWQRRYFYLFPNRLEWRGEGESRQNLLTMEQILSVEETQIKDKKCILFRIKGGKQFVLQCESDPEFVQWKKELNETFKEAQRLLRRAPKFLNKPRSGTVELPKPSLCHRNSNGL

DAPK1 = DAPK1 (Homo sapiens, UniProt P53355); test: SelectScreen kinase profiling, Adapta; type: biochemical; details: DAPK1, 10 µM
MUSK = MUSK (Homo sapiens, UniProt O15146); test: SelectScreen kinase profiling, ZLYTE; type: biochemical
FGFR3 K650M = FGFR3 K650M (Homo sapiens, UniProt P22607, K650M); test: SelectScreen kinase profiling, LanthaScreen binding
MAP2K2 (MEK2) = MAP2K2 (MEK2) (Homo sapiens, UniProt P36507); test: as above
KIT V560G = KIT V560G (Homo sapiens, UniProt P10721, V560G); test: SelectScreen kinase profiling, ZLYTE; type: biochemical
PLK4 = target: T1, PLK4 (Homo sapiens, UniProt O00444); test: SelectScreen kinase profiling, LanthaScreen binding; details: PLK4, 10 µM
T1 sequence (O00444 1-970): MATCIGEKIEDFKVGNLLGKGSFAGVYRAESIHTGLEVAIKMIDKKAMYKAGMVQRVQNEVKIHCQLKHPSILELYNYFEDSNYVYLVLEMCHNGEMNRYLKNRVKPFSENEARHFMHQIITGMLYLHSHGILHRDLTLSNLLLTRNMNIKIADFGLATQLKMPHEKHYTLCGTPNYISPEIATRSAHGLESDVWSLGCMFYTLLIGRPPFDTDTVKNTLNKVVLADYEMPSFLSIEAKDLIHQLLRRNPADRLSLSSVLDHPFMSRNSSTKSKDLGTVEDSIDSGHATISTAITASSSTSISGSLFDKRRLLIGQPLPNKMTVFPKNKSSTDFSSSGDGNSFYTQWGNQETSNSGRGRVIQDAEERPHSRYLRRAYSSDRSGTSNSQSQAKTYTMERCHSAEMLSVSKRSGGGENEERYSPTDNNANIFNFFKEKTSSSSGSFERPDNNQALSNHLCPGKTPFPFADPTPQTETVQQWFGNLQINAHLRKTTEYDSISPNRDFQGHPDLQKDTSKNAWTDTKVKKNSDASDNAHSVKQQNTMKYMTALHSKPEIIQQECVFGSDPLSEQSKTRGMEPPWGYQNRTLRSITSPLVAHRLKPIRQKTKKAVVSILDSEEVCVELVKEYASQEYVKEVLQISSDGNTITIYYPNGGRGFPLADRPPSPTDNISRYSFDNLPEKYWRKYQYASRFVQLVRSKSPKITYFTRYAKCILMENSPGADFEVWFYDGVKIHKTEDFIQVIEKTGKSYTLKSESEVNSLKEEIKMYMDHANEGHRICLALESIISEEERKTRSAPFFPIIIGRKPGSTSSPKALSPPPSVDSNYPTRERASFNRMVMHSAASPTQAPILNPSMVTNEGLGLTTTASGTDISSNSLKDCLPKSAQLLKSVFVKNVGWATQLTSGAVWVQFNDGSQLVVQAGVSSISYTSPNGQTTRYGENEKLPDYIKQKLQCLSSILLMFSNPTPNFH

AMPK (A2/B2/G3) = AMPK (A2/B2/G3) (Homo sapiens, UniProt P54646); test: SelectScreen kinase profiling, ZLYTE; type: biochemical
MAP4K1 (HPK1) = MAP4K1 (HPK1) (Homo sapiens, UniProt Q92918); test: SelectScreen kinase profiling, LanthaScreen binding
AMPK (A2/B2/G2) = AMPK (A2/B2/G2) (Homo sapiens, UniProt P54646); test: as above
PDGFRA (PDGFR alpha) = PDGFRA (PDGFR alpha) (Homo sapiens, UniProt P16234); test: SelectScreen kinase profiling, ZLYTE; type: biochemical
WNK1 = WNK1 (Homo sapiens, UniProt Q9H4A3); test: SelectScreen kinase profiling, LanthaScreen binding; details: WNK1, 10 µM
Source text: (§1) Kinase Technology % Inhibition Avg Kinase Technology % Inhibition Avg […]

STK39 (STLK3) = STK39 (STLK3) (Homo sapiens, UniProt Q9UEW8); test: as above
Source text: as §1

VRK2 = VRK2 (Homo sapiens, UniProt Q86Y07); test: as above; details: VRK2, 10 µM
Source text: as §1

TGFBR2 = TGFBR2 (Homo sapiens, UniProt P37173); test: as above; details: TGFBR2, 10 µM
Source text: as §1

TEC = TEC (Homo sapiens, UniProt P42680); test: as above
Sequence of TEC (P42680 whole entry): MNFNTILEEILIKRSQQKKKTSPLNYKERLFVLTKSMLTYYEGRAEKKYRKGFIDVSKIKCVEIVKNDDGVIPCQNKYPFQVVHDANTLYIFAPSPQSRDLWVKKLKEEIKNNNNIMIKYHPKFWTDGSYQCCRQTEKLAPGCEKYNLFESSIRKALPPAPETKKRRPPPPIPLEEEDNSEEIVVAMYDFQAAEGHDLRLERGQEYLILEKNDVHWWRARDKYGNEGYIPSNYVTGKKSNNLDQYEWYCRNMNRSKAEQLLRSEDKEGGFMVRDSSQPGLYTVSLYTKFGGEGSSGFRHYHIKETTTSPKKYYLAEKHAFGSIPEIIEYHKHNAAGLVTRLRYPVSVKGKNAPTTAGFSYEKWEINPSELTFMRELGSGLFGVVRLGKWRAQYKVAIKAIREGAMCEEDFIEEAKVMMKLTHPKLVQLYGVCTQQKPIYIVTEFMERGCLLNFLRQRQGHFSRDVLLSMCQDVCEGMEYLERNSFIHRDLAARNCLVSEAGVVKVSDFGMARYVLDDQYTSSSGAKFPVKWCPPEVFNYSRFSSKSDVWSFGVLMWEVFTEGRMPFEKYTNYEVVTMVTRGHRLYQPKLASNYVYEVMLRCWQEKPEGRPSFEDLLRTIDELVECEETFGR
Source text: as §1

NEK8 = NEK8 (Homo sapiens, UniProt Q86SG6); test: as above; details: NEK8, 10 µM
Sequence of NEK8 (Q86SG6 whole entry): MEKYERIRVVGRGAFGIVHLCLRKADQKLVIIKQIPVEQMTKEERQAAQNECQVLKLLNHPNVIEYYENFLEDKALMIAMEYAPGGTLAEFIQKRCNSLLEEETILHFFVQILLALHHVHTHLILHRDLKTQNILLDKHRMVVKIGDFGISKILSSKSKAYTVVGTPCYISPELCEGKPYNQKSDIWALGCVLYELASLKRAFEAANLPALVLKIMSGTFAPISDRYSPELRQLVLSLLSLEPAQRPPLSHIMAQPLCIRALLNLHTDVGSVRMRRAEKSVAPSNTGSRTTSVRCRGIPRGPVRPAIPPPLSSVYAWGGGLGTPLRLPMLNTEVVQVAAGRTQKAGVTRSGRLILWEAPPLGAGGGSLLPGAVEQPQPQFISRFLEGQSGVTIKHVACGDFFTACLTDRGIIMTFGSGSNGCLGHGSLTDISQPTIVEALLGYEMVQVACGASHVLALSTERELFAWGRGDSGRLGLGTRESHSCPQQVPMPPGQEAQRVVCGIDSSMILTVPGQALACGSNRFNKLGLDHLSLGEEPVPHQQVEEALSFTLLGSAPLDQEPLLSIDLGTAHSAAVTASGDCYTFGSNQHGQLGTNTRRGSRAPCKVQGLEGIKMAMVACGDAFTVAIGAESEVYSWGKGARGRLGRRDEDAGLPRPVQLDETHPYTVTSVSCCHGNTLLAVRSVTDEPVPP

FYN A = FYN A (Homo sapiens, UniProt P06241); test: as above
JAK1 = JAK1 (Homo sapiens, UniProt P23458); test: SelectScreen kinase profiling, ZLYTE; type: biochemical; details: JAK1, 10 µM
Sequence of JAK1 (P23458 whole entry): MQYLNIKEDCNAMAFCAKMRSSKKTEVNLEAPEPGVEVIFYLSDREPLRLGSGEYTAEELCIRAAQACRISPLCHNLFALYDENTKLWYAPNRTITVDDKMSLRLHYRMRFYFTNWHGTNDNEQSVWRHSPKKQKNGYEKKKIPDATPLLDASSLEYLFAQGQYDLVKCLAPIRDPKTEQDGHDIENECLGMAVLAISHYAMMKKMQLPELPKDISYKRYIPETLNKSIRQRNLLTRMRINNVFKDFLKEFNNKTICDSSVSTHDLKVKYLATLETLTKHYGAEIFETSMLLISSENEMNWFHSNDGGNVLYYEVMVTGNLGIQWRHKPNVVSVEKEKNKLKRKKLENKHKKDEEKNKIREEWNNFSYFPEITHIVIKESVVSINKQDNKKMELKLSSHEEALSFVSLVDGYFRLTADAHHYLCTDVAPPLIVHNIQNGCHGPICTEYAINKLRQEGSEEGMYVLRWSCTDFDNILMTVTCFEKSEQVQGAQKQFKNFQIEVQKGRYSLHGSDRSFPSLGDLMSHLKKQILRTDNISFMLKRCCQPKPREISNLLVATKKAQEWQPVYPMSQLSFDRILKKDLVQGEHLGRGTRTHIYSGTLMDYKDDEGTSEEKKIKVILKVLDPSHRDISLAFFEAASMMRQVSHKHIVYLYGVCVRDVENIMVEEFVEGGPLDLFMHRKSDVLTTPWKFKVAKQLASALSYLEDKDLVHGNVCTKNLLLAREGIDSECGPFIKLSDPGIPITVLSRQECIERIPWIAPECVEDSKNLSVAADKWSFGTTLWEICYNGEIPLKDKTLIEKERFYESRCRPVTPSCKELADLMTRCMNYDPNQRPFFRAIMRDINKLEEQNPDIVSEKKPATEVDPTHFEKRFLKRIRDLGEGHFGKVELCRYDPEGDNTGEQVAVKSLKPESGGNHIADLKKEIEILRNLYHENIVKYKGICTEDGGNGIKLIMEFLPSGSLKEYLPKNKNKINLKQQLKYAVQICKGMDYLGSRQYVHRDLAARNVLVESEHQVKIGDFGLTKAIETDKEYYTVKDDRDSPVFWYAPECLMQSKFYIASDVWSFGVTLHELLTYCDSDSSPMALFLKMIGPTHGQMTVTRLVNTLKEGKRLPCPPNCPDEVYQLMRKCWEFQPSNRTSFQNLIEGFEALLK

Sequence of SNF1LK2 (Q9H0K1 whole entry): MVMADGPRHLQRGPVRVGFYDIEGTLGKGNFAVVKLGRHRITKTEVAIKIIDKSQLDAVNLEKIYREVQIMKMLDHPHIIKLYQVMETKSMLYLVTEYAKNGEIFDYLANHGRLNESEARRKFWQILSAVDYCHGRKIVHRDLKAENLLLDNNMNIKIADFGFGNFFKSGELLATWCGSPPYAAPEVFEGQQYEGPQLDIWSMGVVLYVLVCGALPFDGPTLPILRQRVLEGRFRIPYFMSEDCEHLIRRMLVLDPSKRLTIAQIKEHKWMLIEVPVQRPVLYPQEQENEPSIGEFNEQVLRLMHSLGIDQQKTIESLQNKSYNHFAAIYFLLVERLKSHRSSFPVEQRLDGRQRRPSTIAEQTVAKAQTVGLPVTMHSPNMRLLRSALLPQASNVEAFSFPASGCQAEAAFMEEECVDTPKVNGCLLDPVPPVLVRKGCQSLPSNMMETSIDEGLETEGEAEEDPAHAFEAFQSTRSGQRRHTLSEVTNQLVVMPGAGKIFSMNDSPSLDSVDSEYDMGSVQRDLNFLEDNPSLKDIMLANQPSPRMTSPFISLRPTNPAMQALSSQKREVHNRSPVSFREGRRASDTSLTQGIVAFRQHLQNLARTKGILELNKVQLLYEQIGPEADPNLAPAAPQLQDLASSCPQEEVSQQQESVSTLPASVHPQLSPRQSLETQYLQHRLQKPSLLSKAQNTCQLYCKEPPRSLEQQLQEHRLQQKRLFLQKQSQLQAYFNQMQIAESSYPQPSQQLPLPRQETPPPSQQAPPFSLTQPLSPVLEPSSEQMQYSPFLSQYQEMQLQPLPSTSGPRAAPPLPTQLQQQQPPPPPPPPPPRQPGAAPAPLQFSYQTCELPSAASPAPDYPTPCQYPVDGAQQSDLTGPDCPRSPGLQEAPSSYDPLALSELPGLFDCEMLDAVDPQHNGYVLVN

O=C(c1ccc(/C=C/c2n[nH]c3ccccc23)cc1)N1CCNCC1 [KW-2449]
inhibition at 10 µM (SNF1LK2): 97% | inhibition at 10 µM (CDK5/p25): 97% | inhibition at 10 µM (NEK9): 70% | inhibition at 10 µM (MASTL): 83% | inhibition at 10 µM (GRK7): 41% | % Inhibition 2C19 EOMCC (P450 2C19): 51% | inhibition at 10 µM (CAMK2D (CaMKII delta)): 96% | inhibition at 10 µM (AMPK (A1/B2/G1)): 77% | inhibition at 10 µM (PRKACG (PRKAC gamma)): 18% | inhibition at 10 µM (ADRBK2 (GRK3)): 31% | inhibition at 10 µM (DAPK1): 90% | inhibition at 10 µM (MUSK): 90% | inhibition at 10 µM (FGFR3 K650M): 22% | inhibition at 10 µM (MAP2K2 (MEK2)): 73% | inhibition at 10 µM (KIT V560G): 84% | inhibition at 10 µM (PLK4): 61% | inhibition at 10 µM (AMPK (A2/B2/G3)): 98% | inhibition at 10 µM (MAP4K1 (HPK1)): 76% | inhibition at 10 µM (AMPK (A2/B2/G2)): 78% | inhibition at 10 µM (PDGFRA (PDGFR alpha)): 91% | inhibition at 10 µM (WNK1): 2% | inhibition at 10 µM (STK39 (STLK3)): 38% | inhibition at 10 µM (VRK2): 32% | inhibition at 10 µM (TGFBR2): 77% | inhibition at 10 µM (TEC): -9% | inhibition at 10 µM (NEK8): 30% | inhibition at 10 µM (FYN A): 72% | inhibition at 10 µM (JAK1): 94%
